In ChEMBL document CHEMBL1201862, “PubChem BioAssay data set” (2004):
Activity calls are given as the source filed them.

What was measured:
Cytochrome P450 3A4 = Cytochrome P450 3A4 (Homo sapiens, UniProt P08684); settings: Potency;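 note: confirmatory qHTS run detecting inhibitors and substrates of CYP3A4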
[1] = target: Serine/threonine-protein kinase pim-3 (Homo sapiens, UniProt Q86V86); format: functional;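 note: value obtained as one member of a broad kinase panel profiling effort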
[2] = target: MAP kinase-activated protein kinase 2 (Homo sapiens, UniProt P49137); format: functional;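 note: measured as one member of a kinome-wide kinase panel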
[3] = target: Mitogen-activated protein kinase kinase kinase kinase 4 (Homo sapiens, UniProt O95819); format: functional
Misshapen-like kinase 1 = Misshapen-like kinase 1 (Homo sapiens, UniProt Q8N4C8); format: functional;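 note: kinome panel screen with MINK as the panel member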
Lethal factor = Lethal factor (Bacillus anthracis, UniProt P15917); assay: High-throughput multiplex microsphere dose response for inhibitors of toxin protease, specifically Lethal Factor protease, compounds from Powder Set 01.; format: functional, Bacillus anthracis str. A2012; settings: read-out: EC50_MICROM
[4] = target: T1, Botulinum neurotoxin type A (Clostridium botulinum (strain Hall / ATCC 3502 / NCTC 13319 / Type A), UniProt P0DPI1); assay: High-throughput multiplex microsphere dose response for inhibitors of toxin protease, specifically Botulinum neurotoxin light chain A protease, compounds from Cherry Pick 01.; format: functional; settings: read-out: EC50_MICROM
[5] = target: T1, Botulinum neurotoxin type A; assay: High-throughput multiplex microsphere dose response for inhibitors of toxin protease, specifically Botulinum neurotoxin light chain A protease, compounds from Powder Set 01.; format: functional, Clostridium botulinum A str. ATCC 3502; settings: read-out: EC50_MICROM
[6] = target: T1, Botulinum neurotoxin type A; assay: Confirmatory FRET assay using full length substrates for Botulinum neurotoxin light chain A protease, with Powder Set01.; format: functional
[7] = target: Cell division cycle 7-related protein kinase (Homo sapiens, UniProt O00311); format: functional;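 note: value obtained from a kinome-wide kinase panel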
[8] = target: Cyclin-dependent kinase 19 (Homo sapiens, UniProt Q9BWU1); assay: Navigating the Kinome. Panel member name: CDC2L6; format: functional
[9] = target: ALK tyrosine kinase receptor (Homo sapiens, UniProt Q9UM73); format: functional;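 note: ALK tested as one member of a kinase panel screen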
[10] = target: Tyrosine-protein kinase JAK3 (Homo sapiens, UniProt P52333); format: functional
[11] = target: Mitogen-activated protein kinase 9 (Homo sapiens, UniProt P45984); format: functional;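 note: value from a kinome panel profiling assay, MAPK9 panel entry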
[12] = target: Glycogen synthase kinase-3 beta (Homo sapiens, UniProt P49841); format: functional;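 note: value comes from a broad kinome profiling panel, with GSK3B as the panel member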
[13] = target: Serine/threonine-protein kinase PAK 4 (Homo sapiens, UniProt O96013); format: functional;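 note: value obtained within a kinome profiling panel in which PAK4 was one of the panel members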
[14] = target: Macrophage-stimulating protein receptor (Homo sapiens, UniProt Q04912); assay: Navigating the Kinome. Panel member name: MST1R; format: functional
[15] = target: Calcium/calmodulin-dependent protein kinase type II subunit alpha (Homo sapiens, UniProt Q9UQM7); assay: Navigating the Kinome. Panel member name: CAMK2A; format: functional
[16] = target: Tyrosine-protein kinase BTK (Homo sapiens, UniProt Q06187); format: functional
[17] = target: Tyrosine-protein kinase JAK2 (Homo sapiens, UniProt O60674); format: functional;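 note: JAK2 tested as one member of a kinase panel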
[18] = target: BDNF/NT-3 growth factors receptor (Homo sapiens, UniProt Q16620); format: functional;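 note: NTRK2 measured as one member of a broad kinome-wide kinase profiling panel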
[19] = target: Dual specificity tyrosine-phosphorylation-regulated kinase 1B (Homo sapiens, UniProt Q9Y463); assay: Navigating the Kinome. Panel member name: DYRK1B; format: functional
[20] = target: Receptor-type tyrosine-protein kinase FLT3 (Homo sapiens, UniProt P36888); format: functional;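 note: FLT3 was tested as one member of a kinome-wide kinase panel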
[21] = target: Death-associated protein kinase 3 (Homo sapiens, UniProt O43293); format: functional;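 note: measured as one member of a kinome-wide profiling panel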
[22] = target: Vascular endothelial growth factor receptor 1 (Homo sapiens, UniProt P17948); format: functional;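 note: measured within a kinome-wide profiling panel, FLT1 as the panel member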
[23] = target: Hepatocyte growth factor receptor (Homo sapiens, UniProt P08581); format: functional;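 note: kinase panel profiling across the kinome, with MET as the panel member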
[24] = target: Insulin-like growth factor 1 receptor (Homo sapiens, UniProt P08069); assay: Navigating the Kinome. Panel member name: IGF1R; format: functional
Activated CDC42 kinase 1 = Activated CDC42 kinase 1 (Homo sapiens, UniProt Q07912); assay: Navigating the Kinome. Panel member name: ACK1; format: functional
[25] = target: Serine/threonine-protein kinase pim-1 (Homo sapiens, UniProt P11309); format: functional
[26] = target: Mitogen-activated protein kinase kinase kinase kinase 2 (Homo sapiens, UniProt Q12851); format: functional;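 note: measured as one member of a kinome-wide kinase panel, with MAP4K2 as the panel entry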
[27] = target: Glycogen synthase kinase-3 alpha (Homo sapiens, UniProt P49840); format: functional;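 note: GSK3A result taken from a broad kinome-wide kinase panel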
[28] = target: Rho-associated protein kinase 1 (Homo sapiens, UniProt Q13464); format: functional;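 note: measured within a broad kinome-wide panel profiling many kinases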
[29] = target: Leucine-rich repeat serine/threonine-protein kinase 2 (Homo sapiens, UniProt Q5S007); format: functional;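 note: value from a broad kinome-wide panel profiling study in which LRRK2 was one of the kinases tested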
[30] = target: Cyclin-dependent kinase 7 (Homo sapiens, UniProt P50613); format: functional;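 note: value comes from a kinome-wide kinase profiling panel in which CDK7 is one member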
[31] = target: Dual specificity protein kinase CLK2 (Homo sapiens, UniProt P49760); format: functional
[32] = target: Mitogen-activated protein kinase 8 (Homo sapiens, UniProt P45983); format: functional;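 note: value comes from one member of a kinome-wide kinase profiling panel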
[33] = target: 5'-AMP-activated protein kinase catalytic subunit alpha-1 (Homo sapiens, UniProt Q13131); format: functional
[34] = target: Platelet-derived growth factor receptor alpha (Homo sapiens, UniProt P16234); assay: Navigating the Kinome. Panel member name: PDGFRA; format: functional
[35] = target: Cyclin-dependent kinase 8 (Homo sapiens, UniProt P49336); assay: Navigating the Kinome. Panel member name: CDK8; format: functional
[36] = target: Inhibitor of nuclear factor kappa-B kinase subunit epsilon (Homo sapiens, UniProt Q14164); assay: Navigating the Kinome. Panel member name: IKBKE; format: functional
[37] = target: Vascular endothelial growth factor receptor 2 (Homo sapiens, UniProt P35968); format: functional
[38] = target: Tyrosine-protein kinase receptor TYRO3 (Homo sapiens, UniProt Q06418); format: functional;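 note: TYRO3 value obtained as one member of a kinome-wide profiling panel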
[39] = target: Proto-oncogene tyrosine-protein kinase receptor Ret (Homo sapiens, UniProt P07949); format: functional;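 note: measured within a kinome-wide profiling panel, RET as the panel member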
Focal adhesion kinase 1 = Focal adhesion kinase 1 (Homo sapiens, UniProt Q05397); format: functional;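 note: measured as one member of a kinome panel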
[40] = target: cAMP-dependent protein kinase catalytic subunit alpha (Homo sapiens, UniProt P17612); format: functional
[41] = target: Dual specificity mitogen-activated protein kinase kinase 1 (Homo sapiens, UniProt Q02750); assay: Navigating the Kinome. Panel member name: MAP2K1; format: functional
[42] = target: Mitogen-activated protein kinase 14 (Homo sapiens, UniProt Q16539); format: functional;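 note: part of a kinome-wide panel, MAPK14 entry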
[43] = target: Tyrosine-protein kinase Lck (Homo sapiens, UniProt P06239); format: functional;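 note: lck was assayed as one member of a kinase panel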
[44] = target: Fibroblast growth factor receptor 1 (Homo sapiens, UniProt P11362); format: functional
[45] = target: G protein-coupled receptor kinase 5 (Homo sapiens, UniProt P34947); assay: Navigating the Kinome. Panel member name: GPRK5; format: functional
[46] = target: Serine/threonine-protein kinase D3 (Homo sapiens, UniProt O94806); format: functional;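 note: determined within a kinase panel screen, with PRKCN as the panel member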
[47] = target: Tyrosine-protein kinase Fyn (Homo sapiens, UniProt P06241); format: functional
[48] = target: Leukocyte tyrosine kinase receptor (Homo sapiens, UniProt P29376); assay: Navigating the Kinome. Panel member name: LTK; format: functional
[49] = target: Casein kinase I isoform alpha (Homo sapiens, UniProt P48729); format: functional
[50] = target: Dual specificity mitogen-activated protein kinase kinase 2 (Homo sapiens, UniProt P36507); assay: Navigating the Kinome. Panel member name: MAP2K2; format: functional
Activin receptor type-1 = Activin receptor type-1 (Homo sapiens, UniProt Q04771); assay: Navigating the Kinome. Panel member name: ACVR1; format: functional
[51] = target: Dual specificity tyrosine-phosphorylation-regulated kinase 1A (Homo sapiens, UniProt Q13627); format: functional;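 note: measured against DYRK1A as one member of a broad kinome profiling panel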
[52] = target: Serine/threonine-protein kinase TBK1 (Homo sapiens, UniProt Q9UHD2); assay: Navigating the Kinome. Panel member name: TBK1; format: functional
[53] = target: Ribosomal protein S6 kinase alpha-3 (Homo sapiens, UniProt P51812); format: functional;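 note: measured within a kinome-wide profiling panel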
[54] = target: cAMP-dependent protein kinase catalytic subunit PRKX (Homo sapiens, UniProt P51817); format: functional
[55] = target: Dual specificity protein kinase CLK4 (Homo sapiens, UniProt Q9HAZ1); format: functional
[56] = target: Serine/threonine-protein kinase TAO1 (Homo sapiens, UniProt Q7L7X3); format: functional
[57] = target: Protein kinase C theta type (Homo sapiens, UniProt Q04759); assay: Navigating the Kinome. Panel member name: PRKCQ; format: functional
[58] = target: Macrophage colony-stimulating factor 1 receptor (Homo sapiens, UniProt P07333); format: functional;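 note: value comes from the Navigating the Kinome screening panel, CSF1R member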
[59] = target: Protein kinase C gamma type (Homo sapiens, UniProt P05129); format: functional
[60] = target: Protein kinase C zeta type (Homo sapiens, UniProt Q05513); format: functional;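 note: measured as one member of a broad kinase profiling panel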
[61] = target: Lymphokine-activated killer T-cell-originated protein kinase (Homo sapiens, UniProt Q96KB5); format: functional;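 note: value comes from a kinase panel screen in which TOPK was one of the panel members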
[62] = target: MAP kinase-activated protein kinase 3 (Homo sapiens, UniProt Q16644); format: functional;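 note: value comes from a kinome-wide profiling panel in which MAPKAPK3 is one of the panel members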
[63] = target: Cyclin-dependent kinase 1 (Homo sapiens, UniProt P06493); format: functional;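 note: Kinome-wide panel profiling, with the target listed as panel member CDC2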

T1 sequence (P0DPI1 2-448 limits assumed): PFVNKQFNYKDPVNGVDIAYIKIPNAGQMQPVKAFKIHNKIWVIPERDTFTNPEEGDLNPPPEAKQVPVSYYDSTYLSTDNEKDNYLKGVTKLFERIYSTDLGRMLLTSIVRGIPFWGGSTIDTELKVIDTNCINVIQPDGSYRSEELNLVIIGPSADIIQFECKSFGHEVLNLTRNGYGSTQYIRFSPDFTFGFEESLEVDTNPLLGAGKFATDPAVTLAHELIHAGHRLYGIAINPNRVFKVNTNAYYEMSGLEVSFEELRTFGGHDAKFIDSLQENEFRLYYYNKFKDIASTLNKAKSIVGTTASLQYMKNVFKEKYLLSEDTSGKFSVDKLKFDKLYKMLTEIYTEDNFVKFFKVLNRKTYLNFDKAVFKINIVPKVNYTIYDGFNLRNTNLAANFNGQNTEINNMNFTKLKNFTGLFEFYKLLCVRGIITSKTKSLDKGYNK
Mitogen-activated protein kinase kinase kinase kinase 4, sequence (O95819 whole entry): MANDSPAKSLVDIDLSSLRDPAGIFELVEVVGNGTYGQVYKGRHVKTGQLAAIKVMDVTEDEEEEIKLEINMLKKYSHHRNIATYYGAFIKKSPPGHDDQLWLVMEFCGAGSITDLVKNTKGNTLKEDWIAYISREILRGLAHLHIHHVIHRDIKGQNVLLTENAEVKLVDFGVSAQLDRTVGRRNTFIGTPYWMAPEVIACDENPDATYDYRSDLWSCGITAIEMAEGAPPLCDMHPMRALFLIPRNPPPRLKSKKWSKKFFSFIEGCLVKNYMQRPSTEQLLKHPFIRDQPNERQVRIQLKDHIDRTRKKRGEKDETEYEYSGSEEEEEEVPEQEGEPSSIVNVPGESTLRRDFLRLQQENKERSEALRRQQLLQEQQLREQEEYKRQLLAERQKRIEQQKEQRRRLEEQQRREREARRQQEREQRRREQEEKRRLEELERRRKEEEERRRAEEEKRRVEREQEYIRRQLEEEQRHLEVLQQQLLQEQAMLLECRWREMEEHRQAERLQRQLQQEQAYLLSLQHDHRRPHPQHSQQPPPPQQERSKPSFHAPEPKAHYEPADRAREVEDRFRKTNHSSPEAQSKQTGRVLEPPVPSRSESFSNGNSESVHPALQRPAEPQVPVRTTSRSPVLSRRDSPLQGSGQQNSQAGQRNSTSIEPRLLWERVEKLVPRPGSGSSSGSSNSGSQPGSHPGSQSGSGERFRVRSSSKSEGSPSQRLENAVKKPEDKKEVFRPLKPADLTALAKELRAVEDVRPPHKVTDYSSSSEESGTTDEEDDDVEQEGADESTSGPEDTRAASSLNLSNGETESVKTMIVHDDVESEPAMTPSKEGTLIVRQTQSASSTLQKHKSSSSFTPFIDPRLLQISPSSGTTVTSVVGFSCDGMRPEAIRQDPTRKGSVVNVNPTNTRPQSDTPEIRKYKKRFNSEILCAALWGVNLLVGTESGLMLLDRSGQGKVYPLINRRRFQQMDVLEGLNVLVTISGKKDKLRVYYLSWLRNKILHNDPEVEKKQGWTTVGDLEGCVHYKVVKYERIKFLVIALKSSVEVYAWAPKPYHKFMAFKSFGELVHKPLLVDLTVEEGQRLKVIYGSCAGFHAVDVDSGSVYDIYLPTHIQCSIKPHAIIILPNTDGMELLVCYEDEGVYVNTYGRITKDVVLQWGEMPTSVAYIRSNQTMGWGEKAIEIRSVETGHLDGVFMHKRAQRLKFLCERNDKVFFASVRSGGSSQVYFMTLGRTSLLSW
Protein kinase C theta type, sequence (Q04759 whole entry): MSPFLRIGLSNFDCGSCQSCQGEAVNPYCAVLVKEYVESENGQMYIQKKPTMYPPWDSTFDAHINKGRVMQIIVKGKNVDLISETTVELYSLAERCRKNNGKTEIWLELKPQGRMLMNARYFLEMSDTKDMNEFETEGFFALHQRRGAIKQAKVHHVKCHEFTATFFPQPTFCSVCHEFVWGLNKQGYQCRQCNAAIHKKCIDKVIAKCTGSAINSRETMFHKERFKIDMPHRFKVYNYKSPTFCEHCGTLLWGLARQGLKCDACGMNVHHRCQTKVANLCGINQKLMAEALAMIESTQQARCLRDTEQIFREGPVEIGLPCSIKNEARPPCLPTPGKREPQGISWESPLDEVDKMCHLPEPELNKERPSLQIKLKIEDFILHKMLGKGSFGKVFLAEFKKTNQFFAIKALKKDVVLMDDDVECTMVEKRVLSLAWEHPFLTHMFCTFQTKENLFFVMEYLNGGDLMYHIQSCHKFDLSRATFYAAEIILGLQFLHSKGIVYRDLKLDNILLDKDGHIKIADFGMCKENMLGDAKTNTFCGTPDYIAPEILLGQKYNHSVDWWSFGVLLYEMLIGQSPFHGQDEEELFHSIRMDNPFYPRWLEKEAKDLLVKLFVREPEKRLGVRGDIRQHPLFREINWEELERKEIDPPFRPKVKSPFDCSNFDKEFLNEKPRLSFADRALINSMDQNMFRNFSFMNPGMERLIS
Tyrosine-protein kinase BTK, sequence (Q06187 whole entry): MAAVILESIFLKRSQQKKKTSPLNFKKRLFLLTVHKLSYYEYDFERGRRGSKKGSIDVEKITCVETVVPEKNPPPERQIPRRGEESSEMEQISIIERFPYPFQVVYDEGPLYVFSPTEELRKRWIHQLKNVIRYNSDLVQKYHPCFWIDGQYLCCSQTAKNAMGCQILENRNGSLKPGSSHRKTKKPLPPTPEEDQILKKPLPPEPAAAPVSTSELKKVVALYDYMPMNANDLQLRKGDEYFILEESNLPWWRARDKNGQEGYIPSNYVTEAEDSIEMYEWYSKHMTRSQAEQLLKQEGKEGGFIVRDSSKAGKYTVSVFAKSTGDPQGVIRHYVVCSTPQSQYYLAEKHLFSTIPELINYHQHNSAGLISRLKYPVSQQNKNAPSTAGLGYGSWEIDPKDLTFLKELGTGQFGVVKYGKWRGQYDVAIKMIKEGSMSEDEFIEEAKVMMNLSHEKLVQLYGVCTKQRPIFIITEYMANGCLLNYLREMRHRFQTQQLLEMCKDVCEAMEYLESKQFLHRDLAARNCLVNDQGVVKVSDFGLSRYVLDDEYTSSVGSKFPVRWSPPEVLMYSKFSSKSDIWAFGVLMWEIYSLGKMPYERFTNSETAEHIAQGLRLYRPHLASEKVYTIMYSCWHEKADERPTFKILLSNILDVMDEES
G protein-coupled receptor kinase 5, sequence (P34947 whole entry): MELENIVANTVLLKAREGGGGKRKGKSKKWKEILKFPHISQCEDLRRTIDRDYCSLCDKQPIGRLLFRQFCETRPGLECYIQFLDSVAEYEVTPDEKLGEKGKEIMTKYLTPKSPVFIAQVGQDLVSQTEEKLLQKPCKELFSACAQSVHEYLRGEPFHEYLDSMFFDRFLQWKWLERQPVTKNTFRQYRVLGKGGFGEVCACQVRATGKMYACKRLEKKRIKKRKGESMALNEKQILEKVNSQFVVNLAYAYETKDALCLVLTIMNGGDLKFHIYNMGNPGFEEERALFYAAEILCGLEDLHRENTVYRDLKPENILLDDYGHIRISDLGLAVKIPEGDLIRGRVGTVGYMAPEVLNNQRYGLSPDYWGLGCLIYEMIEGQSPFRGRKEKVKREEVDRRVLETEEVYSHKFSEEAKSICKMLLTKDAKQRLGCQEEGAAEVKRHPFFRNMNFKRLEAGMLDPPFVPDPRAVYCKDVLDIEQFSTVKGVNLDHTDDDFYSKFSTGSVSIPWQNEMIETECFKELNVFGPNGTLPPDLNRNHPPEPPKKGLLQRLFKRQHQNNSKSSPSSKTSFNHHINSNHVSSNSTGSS
Macrophage colony-stimulating factor 1 receptor, sequence (P07333 whole entry): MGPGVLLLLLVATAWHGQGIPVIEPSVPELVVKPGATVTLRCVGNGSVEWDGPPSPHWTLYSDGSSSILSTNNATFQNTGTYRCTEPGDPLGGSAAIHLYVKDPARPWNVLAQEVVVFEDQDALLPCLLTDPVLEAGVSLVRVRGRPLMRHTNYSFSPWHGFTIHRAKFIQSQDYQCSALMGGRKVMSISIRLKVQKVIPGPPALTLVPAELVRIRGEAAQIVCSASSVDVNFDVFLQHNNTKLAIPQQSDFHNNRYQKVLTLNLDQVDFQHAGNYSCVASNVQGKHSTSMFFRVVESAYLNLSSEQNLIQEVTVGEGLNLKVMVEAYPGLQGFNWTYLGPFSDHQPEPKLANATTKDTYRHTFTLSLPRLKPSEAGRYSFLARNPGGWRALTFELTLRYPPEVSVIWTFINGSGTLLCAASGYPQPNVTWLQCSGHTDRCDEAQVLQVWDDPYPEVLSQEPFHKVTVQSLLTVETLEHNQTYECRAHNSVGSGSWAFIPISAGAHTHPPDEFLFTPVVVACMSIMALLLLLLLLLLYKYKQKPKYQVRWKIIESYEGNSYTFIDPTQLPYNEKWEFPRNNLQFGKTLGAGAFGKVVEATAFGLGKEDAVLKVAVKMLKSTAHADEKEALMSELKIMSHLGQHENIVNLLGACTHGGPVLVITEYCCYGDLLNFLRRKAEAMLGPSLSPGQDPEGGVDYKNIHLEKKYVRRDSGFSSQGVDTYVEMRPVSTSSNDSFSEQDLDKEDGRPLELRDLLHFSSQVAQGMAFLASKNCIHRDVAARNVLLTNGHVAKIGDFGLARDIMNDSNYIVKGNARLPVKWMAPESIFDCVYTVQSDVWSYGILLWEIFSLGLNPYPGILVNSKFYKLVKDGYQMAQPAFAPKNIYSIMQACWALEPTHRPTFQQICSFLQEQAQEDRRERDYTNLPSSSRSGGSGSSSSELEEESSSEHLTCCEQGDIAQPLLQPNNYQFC
Dual specificity mitogen-activated protein kinase kinase 2, sequence (P36507 whole entry): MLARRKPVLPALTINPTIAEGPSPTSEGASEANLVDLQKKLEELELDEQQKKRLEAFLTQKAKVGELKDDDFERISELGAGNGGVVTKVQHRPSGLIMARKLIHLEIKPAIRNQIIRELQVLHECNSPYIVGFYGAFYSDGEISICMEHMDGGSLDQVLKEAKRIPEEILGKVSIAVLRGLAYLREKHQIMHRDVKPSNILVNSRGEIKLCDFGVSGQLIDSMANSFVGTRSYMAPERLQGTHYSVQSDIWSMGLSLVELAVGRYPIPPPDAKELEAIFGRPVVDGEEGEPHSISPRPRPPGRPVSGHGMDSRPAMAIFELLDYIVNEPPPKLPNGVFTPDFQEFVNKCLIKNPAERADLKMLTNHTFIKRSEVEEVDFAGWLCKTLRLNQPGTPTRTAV

Oc1ccc(Nc2nc(-c3ccc(Cl)cc3)cs2)cc1
active: Ki [1] 3.16 µM | Ki [2] 7.94 µM | Ki [3] 1 µM | Ki (Misshapen-like kinase 1) 2.51 µM
inconclusive: AC50 (Cytochrome P450 3A4) 25.1 µM

O=C(Nc1ccc2nc(-c3cccs3)c(-c3cccs3)nc2c1)NC1CC1
active: EC50 (Lethal factor) 1.6 µM | EC50 [4] 12.3 µM | EC50 [5] 1.5 µM | EC50 [6] 0.6 µM

Cn1ncc2cc(Nc3ccnc(N)n3)ccc21
inactive: Ki [8] > 100 µM
active: Ki [7] 0.398 µM

CC(C)Oc1cc(Nc2nc(NC(C)c3ccc(F)cn3)ncc2Cl)n[nH]1 (stereo not given)
active: Ki [9] 0.126 µM | Ki [10] 2 µM | Ki [14] 0.2 µM | Ki [15] 0.316 µM | Ki [16] 1 µM | Ki [17] 0.1 µM | Ki [18] 0.001 µM | Ki [20] 0.316 µM | Ki [22] 1.58 µM | Ki [24] 1.26 µM | Ki (Activated CDC42 kinase 1) 0.0251 µM | Ki [28] 2 µM | Ki [29] 1 µM | Ki [30] 0.316 µM | Ki [31] 2.51 µM | Ki [33] 0.158 µM | Ki [37] 0.501 µM | Ki [39] 0.0398 µM | Ki (Focal adhesion kinase 1) 0.0316 µM | Ki [43] 0.398 µM | Ki [44] 0.0251 µM | Ki [47] 0.398 µM | Ki [48] 0.0316 µM | Ki [49] 1 µM | Ki (Activin receptor type-1) 1.58 µM | Ki [55] 0.501 µM | Ki [56] 2.51 µM | Ki [57] 0.501 µM
inactive: Ki [11] > 3.98 µM | Ki [12] > 3.98 µM | Ki [13] > 5.01 µM | Ki [19] > 2.51 µM | Ki [21] > 5.01 µM | Ki [23] > 2.51 µM | Ki [25] > 6.31 µM | Ki [26] > 2.51 µM | Ki [3] > 5.01 µM | Ki [27] > 3.98 µM | Ki [32] > 5.01 µM | Ki [34] > 2.51 µM | Ki [35] > 3.98 µM | Ki [36] > 3.16 µM | Ki [38] > 3.16 µM | Ki [40] > 1.26 µM | Ki [41] > 3.16 µM | Ki [42] > 3.98 µM | Ki [45] > 3.98 µM | Ki [46] > 3.98 µM | Ki [50] > 3.98 µM | Ki [51] > 2 µM | Ki [52] > 3.16 µM | Ki [53] > 3.98 µM | Ki [54] > 3.16 µM | Ki [58] > 2.51 µM

Oc1cccc(-c2nc(N3CCOCC3)c3oc4ncccc4c3n2)c1 [PI-103]
inactive: Ki [59] > 7.94 µM | Ki [60] > 7.94 µM | Ki [61] > 10 µM | Ki [62] > 10 µM | Ki [63] > 7.94 µM
